According to patent EP2787958B1, “CHELIDONIUM MAJUS EXTRACTS AND THEIR USE IN THE TREATMENT OF SKIN DISORDERS AND PROMOTION OF SKIN REGENERATION” (priority 2011, dated 2013):
Like-named read-outs stand apart in the source and are kept apart here.

How the values were obtained:
interleukin 1β (IL-1β) = experiment: Inflammatory cytokines in cell supernatant (Mosaic ELISA microarray): IL-1β; type: cell-based, Human; conditions: for IL-1β ng/(ml* No. of cells from photo) ± SD: 24 hours
interleukin 6 (IL-6) = experiment: Inflammatory cytokines in cell supernatant (Mosaic ELISA microarray): IL-6; type: cell-based, Human; conditions: for IL-6 ng/(ml* No. of cells from photo) ± SD: 24 hours
HDF cells [1] = experiment: Evaluation of cell morphology (Sirius Red stained cells, microscopy); type: cell-based, Human
Method: Their morphology, colour and shape have been evaluated by using the ImageJ software program.
The results of the effects on cell morphology, produced by the treatment with the test compounds for 24 hours at the concentrations specified, in HDF cells stained for collagen with PSR are shown in Figures 4a-d, 5a-d and 6a-f. These Figures allow evaluating cell morphology through light microscopy observation at magnifications of 100x, 200x and 400x for HDF cells cultured under standard growth conditions, in the presence of 100 µM H2O2 and in the presence of 34 ng/ml TGF-β1.

[2] = Anti-radical activity (decay of the DPPH radical); type: biochemical; conditions: for Anti-radical (skin protective): 24 hours
Method in brief: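 Test substance in ethanol mixed 1:1 with 200 µM DPPH (stock concentrations), in quadruplicate. Absorbance read at 530 nm after 30 min, with vitamin C and ethanol-only controls. IC50 from variable-slope Hill regression of dose-activity curves.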

HDF cells [3] = experiment: Summary of uses and toxic effects deduced from the cell assays (Table 1); type: cell-based, Human; conditions: for Anti-fibrotic (prevention of scar formation, also from acne) / Cytoprotective (antioxidant, anti-inflammatory and anti-ageing; useful also in the treatment of acne) / Cytotoxic / Irritant / Wound-healing: 24 hours
Method in brief: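 HDF cells exposed to test substances at a given dosage for 24 h; uses and toxicity inferred from free-radical scavenging, mitochondrial dehydrogenase activity, IL-1β/IL-6 production (basal or induced by 100 µM H2O2), proliferation under standard growth conditions, and senescence-like morphology.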

[4] = test system: collagen produced by HDF cells; experiment: Quantity of collagen produced by the cells (elution of Sirius Red)
[5] = test system: Human dermal fibroblasts (HDF); experiment: Mitochondrial dehydrogenase activity (WST-1 formazan assay) in HDF cells; conditions: for mitochondrial dehydrogenase activity (effect in words): 1 µM; for Revitalizing agent: 24 hours; for activity at 1 µM / activity at 10 µM: Homo sapiens, Fibroblast, read-out: % mitochondrial dehydrogenase activity ± SD
HDF cells [6] = experiment: Evaluation of cell proliferation (counting of Sirius Red stained cells in photographs); conditions: for No. of cells from photo ± SD: 24 hours
[7] = Dose 1 µm (coptisine: 1 pm [sic])

SMILES: CN1Cc2c(ccc3c2OCO3)[C@@H]2[C@H]1c1cc3c(cc1C[C@@H]2O)OCO3 [chelidonine]
- IL-1β production (effect in words) (interleukin 1β (IL-1β); 1 µM, 34 ng/ml TGF-β1): antagonizes the production of IL-1β
- IL-1β ng/(ml* No. of cells from photo) ± SD (interleukin 1β (IL-1β); 1 µM, 34 ng/ml TGF-β1): 127±26 ng/(ml* No. of cells from photo)
- IL-1β production (effect in words) (interleukin 1β (IL-1β); 1 µM, 100 µM H2O2): antagonizes the production of IL-1β
- IL-1β ng/(ml* No. of cells from photo) ± SD (interleukin 1β (IL-1β); 1 µM, 100 µM H2O2): 115±8 ng/(ml* No. of cells from photo)
- IL-1β ng/(ml* No. of cells from photo) ± SD (interleukin 1β (IL-1β); 1 µM, Standard conditions): 666±30 ng/(ml* No. of cells from photo)
- IL-1β production (effect in words) (interleukin 1β (IL-1β); 1 µM, standard conditions): inhibits the production of IL-1β
- IL-1β production (effect in words) (interleukin 1β (IL-1β); 10 µM, 34 ng/ml TGF-β1): stimulates IL-1β production
- IL-1β ng/(ml* No. of cells from photo) ± SD (interleukin 1β (IL-1β); 10 µM, 34 ng/ml TGF-β1): 363±27 ng/(ml* No. of cells from photo)
- IL-1β production (effect in words) (interleukin 1β (IL-1β); 10 µM, 100 µM H2O2): stimulates IL-1β production
- IL-1β ng/(ml* No. of cells from photo) ± SD (interleukin 1β (IL-1β); 10 µM, 100 µM H2O2): 366±35 ng/(ml* No. of cells from photo)
- IL-1β ng/(ml* No. of cells from photo) ± SD (interleukin 1β (IL-1β); 10 µM, Standard conditions): 17500±700 ng/(ml* No. of cells from photo)
- IL-1β production (effect in words) (interleukin 1β (IL-1β); 10 µM, standard conditions): stimulates IL-1β production
- IL-6 production (effect in words) (interleukin 6 (IL-6); 1 µM, 34 ng/ml TGF-β1): antagonizes the production of IL-6
- IL-6 ng/(ml* No. of cells from photo) ± SD (interleukin 6 (IL-6); 1 µM, 34 ng/ml TGF-β1): 620±72 ng/(ml* No. of cells from photo)
- IL-6 production (effect in words) (interleukin 6 (IL-6); 1 µM, 100 µM H2O2): antagonizes the production of IL-6
- IL-6 ng/(ml* No. of cells from photo) ± SD (interleukin 6 (IL-6); 1 µM, 100 µM H2O2): 697±87 ng/(ml* No. of cells from photo)
- IL-6 ng/(ml* No. of cells from photo) ± SD (interleukin 6 (IL-6); 1 µM, Standard conditions): 2883±553 ng/(ml* No. of cells from photo)
- IL-6 production (effect in words) (interleukin 6 (IL-6); 1 µM, standard conditions): inhibits the production of IL-6
- IL-6 production (effect in words) (interleukin 6 (IL-6); 10 µM, 34 ng/ml TGF-β1): stimulates IL-6 production
- IL-6 ng/(ml* No. of cells from photo) ± SD (interleukin 6 (IL-6); 10 µM, 34 ng/ml TGF-β1): 1231±76 ng/(ml* No. of cells from photo)
- IL-6 production (effect in words) (interleukin 6 (IL-6); 10 µM, 100 µM H2O2): stimulates IL-6 production
- IL-6 ng/(ml* No. of cells from photo) ± SD (interleukin 6 (IL-6); 10 µM, 100 µM H2O2): 1990±32 ng/(ml* No. of cells from photo)
- IL-6 ng/(ml* No. of cells from photo) ± SD (interleukin 6 (IL-6); 10 µM, Standard conditions): 38100±8300 ng/(ml* No. of cells from photo)
- IL-6 production (effect in words) (interleukin 6 (IL-6); 10 µM, standard conditions): stimulates IL-6 production
- cell morphology (HDF cells [1]; 1 µM): No changes in cell morphology
- cell morphology (HDF cells [1]; 10 µM): Very obvious changes in cell morphology
- % DPPH activity ([2]; 1 mM, 30 minutes): 98%
- Anti-radical (skin protective) [2, 7]: No
- Anti-radical (skin protective) ([2]; Dose 10 µm): No
- Anti-fibrotic (prevention of scar formation, also from acne) (HDF cells [3]; [7]): Yes (↓collagen, ↓IL-6, ↓IL-1β)
- Cytoprotective (antioxidant, anti-inflammatory and anti-ageing; useful also in the treatment of acne) (HDF cells [3]; [7]): Yes (↓IL-6, ↓IL-1β)
- Cytotoxic (HDF cells [3]; [7]): No
- Irritant (HDF cells [3]; [7]): No
- Wound-healing (HDF cells [3]; [7]): Yes (↓IL-1β)
- Anti-fibrotic (prevention of scar formation, also from acne) (HDF cells [3]; Dose 10 µm): No
- Cytoprotective (antioxidant, anti-inflammatory and anti-ageing; useful also in the treatment of acne) (HDF cells [3]; Dose 10 µm): No
- Cytotoxic (HDF cells [3]; Dose 10 µm): Yes (senescent morph., ↓dehydrogenase)
- Irritant (HDF cells [3]; Dose 10 µm): Yes (↑IL-6, ↑IL-1β)
- Wound-healing (HDF cells [3]; Dose 10 µm): No
- concentrations at which no toxic (cytotoxic and irritant) effects are shown (HDF cells [3]; exposure for 24 hours): less than or equal to 1 µM
- collagen production (effect in words) ([4]; 1 µM, 34 ng/ml TGF-β1): tendency to antagonize collagen stimulation induced by TGF-β1
- collagen production (effect in words) ([4]; 1 µM, 100 µM H2O2): tendency to inhibit collagen production
- collagen production (effect in words) ([4]; 1 µM, standard conditions): no evident ability to modulate collagen production
- collagen production (effect in words) ([4]; 10 µM, 34 ng/ml TGF-β1): stimulates collagen production
- collagen production (effect in words) ([4]; 10 µM, 100 µM H2O2): stimulates collagen production
- collagen production (effect in words) ([4]; 10 µM, standard conditions): stimulates collagen production
- concentrations below which no significant effects on mitochondrial dehydrogenase activity are shown [5]: less than 0.1 µM
- mitochondrial dehydrogenase activity (effect in words) ([5]; 18 h): absence of effects
- mitochondrial dehydrogenase activity (effect in words) ([5]; increased exposure time): significant inhibition of mitochondrial dehydrogenase activity
- Revitalizing agent [5, 7]: No
- Revitalizing agent ([5]; Dose 10 µm): No
- activity at 1 µM ([5]; 18 h): 105 ± 7.05%
- activity at 10 µM ([5]; 18 h): 89.3 ± 6.9%
- activity at 1 µM ([5]; 42 h): 64.7 ± 5.88%
- activity at 10 µM ([5]; 42 h): 30.3 ± 2.97%
- inhibitory power toward the mitochondrial dehydrogenase activity ([5]; skin fibroblast cells and/or keratinocytes): marked inhibitory power
- cell proliferation (effect in words) (HDF cells [6]; 1 µM): no evident ability to modulate cell proliferation
- No. of cells from photo ± SD (HDF cells [6]; 1 µM, 34 ng/ml TGF-β1): 184±25
- No. of cells from photo ± SD (HDF cells [6]; 1 µM, 100 µM H2O2): 189±37
- No. of cells from photo ± SD (HDF cells [6]; 1 µM, Standard conditions): 202±21
- cell proliferation (effect in words) (HDF cells [6]; 10 µM): marked inhibition of proliferation
- No. of cells from photo ± SD (HDF cells [6]; 10 µM, 100 µM H2O2): 101±4
- No. of cells from photo ± SD (HDF cells [6]; 10 µM, Standard conditions): 109±16
